Results on 30 molecules are retold here after patent US20200281202A1 (priority 2017, published 2020).

For one assay, the system named is Phytophthora infestans. Kind of assay: microbe, parasite or virus in culture. Type of assay: cell-based. The conditions noted are these: 30 ppm in Rye Agar medium; seven days at 18° C.
With `Cn1nc(OCC(=O)N2CCC(c3nc(C4=NOC(c5c(Cl)cccc5OS(C)(=O)=O)C4)cs3)CC2)cc1C(F)(F)F` (stereo not drawn) [Compound 19], the “control (radial growth) compared to the untreated check” value was found to be 70%.

As to `Cn1nc(C(F)(F)F)cc1OCC(=O)N1CCC(c2nc(C3=NOC(c4c(Cl)cccc4Cl)C3)cs2)CC1` (stereo not drawn) [Compound 2], the “control (radial growth) compared to the untreated check” value turned out to be 70%.

Turning to `O=C(COc1ncc(C(F)(F)F)cc1Br)N1CCC(c2nc(C3=NOC(c4c(F)cccc4F)C3)cs2)CC1` (stereo not drawn) [Compound 53], the “control (radial growth) compared to the untreated check” value is given as 70%.

Still in this assay, the particulars now being: Phytophthora infestans, 168 h, read-out: control (radial growth) compared to the untreated check.
Take `O=C(COc1ncccc1C(F)(F)F)N1CCC(c2nc(C3OCc4ccccc4CO3)cs2)CC1` [Compound 59, 1-(4-(4-(1,5-dihydrobenzo[e][1,3]dioxepin-3-yl)thiazol-2-yl)piperidin-1-yl)-2-((3-(trifluoromethyl)pyridin-2-yl)oxy)ethan-1-one]: the inhibition of growth at 30 ppm was found to be 70%.

Turning to `Cn1nc(OCC(=O)N2CCC(c3nc(C4=NOC(c5c(F)cccc5F)C4)cs3)CC2)cc1C(F)F` (stereo not drawn) [Compound 9], the inhibition of growth at 30 ppm turned out to be 70%.

As for `O=C(COc1cccc(C(F)(F)F)n1)N1CCC(c2nc(C3=NOC(c4c(F)cccc4F)C3)cs2)CC1` (stereo not drawn) [Compound 72, 1-(4-(4-(5-(2,6-difluorophenyl)-4,5-dihydroisoxazol-3-yl)thiazol-2-yl)piperidin-1-yl)-2-((6-(trifluoromethyl)pyridin-2-yl)oxy)ethan-1-one], the inhibition of growth at 30 ppm came out at 70%.

As to `Cc1cnc(OCC(=O)N2CCC(c3nc(C4=NOC(c5c(F)cccc5F)C4)cs3)CC2)c(C(F)(F)F)c1` (stereo not drawn) [Compound 88, 1-(4-(4-(5-(2,6-difluorophenyl)-4,5-dihydroisoxazol-3-yl)thiazol-2-yl)piperidin-1-yl)-2-((5-methyl-3-(trifluoromethyl)pyridin-2-yl)oxy)ethan-1-one], the inhibition of growth at 30 ppm came out at 70%.

For `O=C(COc1ncc(C(F)(F)F)cc1Br)N1CCC(c2nc(C3=NOC(c4c(Cl)cc(Cl)cc4Cl)C3)cs2)CC1` (stereo not drawn) [Compound 54, 2-((3-bromo-5-(trifluoromethyl)pyridin-2-yl)oxy)-1-(4-(4-(5-(2,4,6-trichlorophenyl)-4,5-dihydroisoxazol-3-yl)thiazol-2-yl)piperidin-1-yl)ethan-1-one], the inhibition of growth at 30 ppm worked out at 70%.

For the molecule `Cc1cccnc1OCC(=O)N1CCC(c2nc(C3=NOC(c4c(Cl)cccc4OS(C)(=O)=O)C3)cs2)CC1` (stereo not drawn) [Compound 78, 3-chloro-2-(3-(2-(1-(2-((3-methylpyridin-2-yl)oxy)acetyl)piperidin-4-yl)thiazol-4-yl)-4,5-dihydroisoxazol-5-yl)phenyl methanesulfonate], the inhibition of growth at 30 ppm was found to be 70%.

Regarding `O=C(CNc1ncccc1C(F)(F)F)N1CCC(c2nc(C3=NOC(c4c(Cl)cccc4Cl)C3)cs2)CC1` (stereo not drawn) [Compound 82, 1-(4-(4-(5-(2,6-dichlorophenyl)-4,5-dihydroisoxazol-3-yl)thiazol-2-yl)piperidin-1-yl)-2-((3-(trifluoromethyl)pyridin-2-yl)amino)ethan-1-one], the inhibition of growth at 30 ppm is 70%.

With `Cn1ccc(OCC(=O)N2CCC(c3nc(C4=NOC(c5c(Cl)cccc5OS(C)(=O)=O)C4)cs3)CC2)n1` (stereo not drawn) [Compound 5, 3-chloro-2-(3-(2-(1-(2-((1-methyl-1H-pyrazol-3-yl)oxy)acetyl)piperidin-4-yl)thiazol-4-yl)-4,5-dihydroisoxazol-5-yl)phenyl methanesulfonate], the inhibition of growth at 30 ppm came to 70%.

`Cn1nc(C(F)(F)F)cc1OCC(=O)N1CCC(c2nc(C3=NOC(c4c(Cl)cccc4OS(C)(=O)=O)C3)cs2)CC1` (stereo not drawn) [Compound 4, 3-chloro-2-(3-(2-(1-(2-((1-methyl-3-(trifluoromethyl)-1H-pyrazol-5-yl)oxy)acetyl)piperidin-4-yl)thiazol-4-yl)-4,5-dihydroisoxazol-5-yl)phenyl methanesulfonate]: the inhibition of growth at 30 ppm was 70%.

For the molecule `O=C(COc1cc(C(F)(F)F)ccn1)N1CCC(c2nc(C3=NOC(c4c(F)cccc4F)C3)cs2)CC1` (stereo not drawn) [Compound 43], the inhibition of growth at 30 ppm was 70%.

`O=C(CSc1ncc(C(F)(F)F)cc1Cl)N1CCC(c2nc(C3=NOC(c4c(F)cccc4F)C3)cs2)CC1` (stereo not drawn) [Compound 65, 2-((3-chloro-5-(trifluoromethyl)pyridin-2-yl)thio)-1-(4-(4-(5-(2,6-difluorophenyl)-4,5-dihydroisoxazol-3-yl)thiazol-2-yl)piperidin-1-yl)ethan-1-one]: the inhibition of growth at 30 ppm came to 70%.

Turning to `Cn1ccc(OCC(=O)N2CCC(c3nc(C4=NOC(c5c(F)cccc5F)C4)cs3)CC2)n1` (stereo not drawn) [Compound 1, 1-(4-(4-(5-(2,6-difluorophenyl)-4,5-dihydroisoxazol-3-yl)thiazol-2-yl)piperidin-1-yl)-2-((1-methyl-1H-pyrazol-3-yl)oxy)ethan-1-one], the inhibition of growth at 30 ppm stood at 70%.

Turning to `Cc1ccc(C(F)(F)F)c(OCC(=O)N2CCC(c3nc(C4OCc5cccc(OS(C)(=O)=O)c5CO4)cs3)CC2)n1` (stereo not drawn) [Compound 92, 3-(2-(1-(2-((6-methyl-3-(trifluoromethyl)pyridin-2-yl)oxy)acetyl)piperidin-4-yl)thiazol-4-yl)-1,5-dihydrobenzo[e][1,3]dioxepin-6-yl methanesulfonate], the inhibition of growth at 30 ppm amounted to 70%.

For `Cn1nc(C(F)(F)F)cc1OCC(=O)N1CCC(c2nc(C3=NOC(c4c(F)cccc4F)C3)cs2)CC1` (stereo not drawn) [Compound 3, 1-(4-(4-(5-(2,6-difluorophenyl)-4,5-dihydroisoxazol-3-yl)thiazol-2-yl)piperidin-1-yl)-2-((1-methyl-3-(trifluoromethyl)-1H-pyrazol-5-yl)oxy) ethan-1-one], the inhibition of growth at 30 ppm turned out to be 70%.

Regarding `Cc1cnc(OCC(=O)N2CCC(c3nc(C4=NOC(c5c(Cl)cccc5Cl)C4)cs3)CC2)c(C(F)(F)F)c1` (stereo not drawn) [Compound 84, 1-(4-(4-(5-(2,6-dichlorophenyl)-4,5-dihydroisoxazol-3-yl)thiazol-2-yl)piperidin-1-yl)-2-((5-methyl-3-(trifluoromethyl)pyridin-2-yl)oxy)ethan-1-one], the inhibition of growth at 30 ppm came to 70%.

Consider `O=C(COc1cccc(C(F)(F)F)n1)N1CCC(c2nc(C3=NOC(c4c(Cl)cccc4Cl)C3)cs2)CC1` (stereo not drawn) [Compound 70, 1-(4-(4-(5-(2,6-dichlorophenyl)-4,5-dihydroisoxazol-3-yl)thiazol-2-yl)piperidin-1-yl)-2-((6-(trifluoromethyl)pyridin-2-yl)oxy)ethan-1-one], for which the inhibition of growth at 30 ppm was determined as 70%.

As to `O=C(COc1ncc(C(F)(F)F)cc1Br)N1CCC(c2nc(C3=NOC(c4c(Cl)cccc4Cl)C3)cs2)CC1` (stereo not drawn) [Compound 51, 2-((3-bromo-5-(trifluoromethyl)pyridin-2-yl)oxy)-1-(4-(4-(5-(2,6-dichlorophenyl)-4,5-dihydroisoxazol-3-yl)thiazol-2-yl)piperidin-1-yl)ethan-1-one], the inhibition of growth at 30 ppm was 70%.

Turning to `O=C(COc1ncccc1C(F)F)N1CCC(c2nc(C3=NOC(c4c(Cl)cccc4Cl)C3)cs2)CC1` (stereo not drawn) [Compound 90], the inhibition of growth at 30 ppm turned out to be 70%.

`CS(=O)(=O)Oc1cccc(Cl)c1C1CC(c2csc(C3CCN(C(=O)COc4ncccc4C(F)F)CC3)n2)=NO1` (stereo not drawn) [Compound 89, 3-chloro-2-(3-(2-(1-(2-((3-(difluoromethyl)pyridin-2-yl)oxy)acetyl)piperidin-4-yl)thiazol-4-yl)-4,5-dihydroisoxazol-5-yl)phenyl methanesulfonate]: the inhibition of growth at 30 ppm came to 70%.

As for `O=C(CSc1ncccc1C(F)(F)F)N1CCC(c2nc(C3=NOC(c4c(Cl)cc(Cl)cc4Cl)C3)cs2)CC1` (stereo not drawn) [Compound 63], the inhibition of growth at 30 ppm was 70%.

Regarding `Cc1cnc(OCC(=O)N2CCC(c3nc(C4=NOC(c5c(Cl)cccc5OS(C)(=O)=O)C4)cs3)CC2)c(C(F)(F)F)c1` (stereo not drawn) [Compound 85, 3-chloro-2-(3-(2-(1-(2-((5-methyl-3-(trifluoromethyl)pyridin-2-yl)oxy)acetyl)piperidin-4-yl)thiazol-4-yl)-4,5-dihydroisoxazol-5-yl)phenyl methanesulfonate], the inhibition of growth at 30 ppm came to 70%.

`CS(=O)(=O)Oc1cccc(Cl)c1C1CC(c2csc(C3CCN(C(=O)COc4ccc(C(F)(F)F)cn4)CC3)n2)=NO1` (stereo not drawn) [Compound 48, 3-chloro-2-(3-(2-(1-(2-((5-(trifluoromethyl)pyridin-2-yl)oxy)acetyl)piperidin-4-yl)thiazol-4-yl)-4,5-dihydroisoxazol-5-yl)phenyl methanesulfonate]: the inhibition of growth at 30 ppm was 70%.

Regarding `CS(=O)(=O)Oc1cccc(Cl)c1C1CC(c2csc(C3CCN(C(=O)COc4cc(C(F)(F)F)ccn4)CC3)n2)=NO1` (stereo not drawn) [Compound 46, 3-chloro-2-(3-(2-(1-(2-((4-(trifluoromethyl)pyridin-2-yl)oxy)acetyl)piperidin-4-yl)thiazol-4-yl)-4,5-dihydroisoxazol-5-yl)phenyl methanesulfonate], the inhibition of growth at 30 ppm came to 70%.

In the case of `O=C(COc1ccc(C(F)(F)F)cn1)N1CCC(c2nc(C3=NOC(c4c(F)cccc4F)C3)cs2)CC1` (stereo not drawn) [Compound 49, 1-(4-(4-(5-(2,6-difluorophenyl)-4,5-dihydroisoxazol-3-yl)thiazol-2-yl)piperidin-1-yl)-2-((5-(trifluoromethyl)pyridin-2-yl)oxy)ethan-1-one], the inhibition of growth at 30 ppm is 70%.

As to `O=C(COc1ccc(C(F)(F)F)cn1)N1CCC(c2nc(C3=NOC(c4c(Cl)cccc4Cl)C3)cs2)CC1` (stereo not drawn) [Compound 47, 1-(4-(4-(5-(2,6-dichlorophenyl)-4,5-dihydroisoxazol-3-yl)thiazol-2-yl)piperidin-1-yl)-2-((5-(trifluoromethyl)pyridin-2-yl)oxy)ethan-1-one], the inhibition of growth at 30 ppm stood at 70%.

As for `CS(=O)(=O)Oc1cccc2c1COC(c1csc(C3CCN(C(=O)COc4ncccc4C(F)(F)F)CC3)n1)OC2` (stereo not drawn) [Compound 91, 3-(2-(1-(2-((3-(trifluoromethyl)pyridin-2-yl)oxy)acetyl)piperidin-4-yl)thiazol-4-yl)-1,5-dihydrobenzo[e][1,3]dioxepin-6-yl methanesulfonate], the inhibition of growth at 30 ppm amounted to 70%.

Regarding `CS(=O)(=O)Oc1cccc(Cl)c1C1CC(c2csc(C3CCN(C(=O)COc4cccc(C(F)(F)F)n4)CC3)n2)=NO1` (stereo not drawn) [Compound 71, 3-chloro-2-(3-(2-(1-(2-((6-(trifluoromethyl)pyridin-2-yl)oxy)acetyl)piperidin-4-yl)thiazol-4-yl)-4,5-dihydroisoxazol-5-yl)phenyl methanesulfonate], the inhibition of growth at 30 ppm was determined as 70%.
